Results on nine compounds are retold here after patent US20010036965A1, “Iodo-nonoxynol-9-derivatives and methods for their use” (The Medical College of Hampton Roads, Eastern Virginia …, priority 1999, published 2001).

The nature of data set [1]: Solubility and pH of test solutions in dH2O (Table 2). To be noted: in dH2O at initial concentration of the Sander-Cramer assay.
Another data set concerns HIV-1. To be noted: background; cited from earlier work.
Another data set relates to human spermatozoa. In words: Sander-Cramer assay, spermicidal activity. The format is cell-based. To be noted: for Highest Spermicidal Dilution, median / M.E.C. (minimum effective concentration): solvent dH2O; for Highest Spermicidal Dilution, median: N-9 equimolar 24, kill all spermatozoa within twenty seconds; for M.E.C. (minimum effective concentration): complete spermicidal activity within twenty seconds. The protocol:
N-9 and its iodinated derivatives were assessed in vitro for their ability to kill spermatozoa and HIV virions. The Sander-Cramer assay was performed in order to evaluate the spermicidal activity of the surfactants and their coprecipitates with PVP. This assay determines the minimum lethal dose, reported as a concentration, of spermicide needed to kill all spermatozoa within twenty seconds. The following oligomers were incorporated into coprecipitates with PVP for the in vitro assessment: IN-9 (n=1-17), IN-9 (n=8) and IN-9 (n=13). The neat liquids of N-9 and IN-9 were also assessed for their spermicidal activity. The quantity of active compound in each coprecipitate was determined by a normal phase HPLC analysis and presented as a weight by weight (w/w) percentage. The amount of active compound in each coprecipitate was adjusted by using the w/w percentages so that the assays were conducted using equimolar amounts of active compounds.

The subject of another data set is free HIV-1-RF. In words: Cell-Free HIV Inactivation assay. The format is cell-based. To be noted: for Infec. Red. (log), Cell-Free HIV Inactivation: two minute incubation; for virucidal activity against cell-free HIV: sufficient if viral titer reduction of at least two log10 units. As for the experimental part:
(§1) The compounds used in the Sander-Cramer assays (neat liquids and coprecipitates) were evaluated for their anti-HIV activity using the Cell-Free and Cell-Associated Inactivation Assays (see Table #3). Both assays employ solutions of active compound at varying concentrations in order to detect the optimal concentration to reduce the infectivity of a predetermined HIV viral load in the form of free HIV-1-RF or RF infected H9 cells. A solution of active compound is determined to have sufficient anti-viral activity if, when tested, a viral titer reduction of at least two log10 units occurs. N-9 and IN-9, in their neat liquid forms, were both found to be virucidal against cell-free and cell-associate HIV. […] The coprecipitates of N-9 (n=1-17) and IN-9 (n=1-17) were also virucidal in both assays.

For a further data set, the system named is RF infected H9 cells. Description: Cell-Associated HIV Inactivation assay. The format is cell-based, HIV-1. To be noted: for Infec. Red. (log), Cell-Associated HIV Inactivation: two minute incubation; for virucidal activity against cell-associated HIV: sufficient if viral titer reduction of at least two log10 units. The protocol:
as §1

For data set [2] the following is noted: background; cited from earlier work.
The nature of data set [3]: Partition coefficient in n-octanol/water (log P) with radiolabeled species. The format is physicochemical. The source says:
Radiolabeled species ([^14C]nonoxynol-9, [^125I]iodinated nonoxynol-9) were used to obtain precise measurements of the log P values. Iodinated nonoxynol-9 was conceptualized to be more lipophilic based upon the work by chemists such as Hammett and Hansch. Hammett determined that the halogens (F, Cl, Br, I), when attached covalently to an aromatic ring, withdrew a portion of the electron density out of the ring. The decrease in electron density causes the ring to be less susceptible to induced polarization by solvent molecules, therefore increasing its lipophilic character. The hydrophobic parameter π, developed by Hansch, reflects a substituent's ability to impart lipophilic character on a molecule (π=log Psubstituted molecule−log […]). Hansch found experimentally that the halogens created a positive π value in most molecular systems which correlated with an increase in the lipophilicity of the compound. […] Additionally, the lengthening of the ethylene oxide chain allows for reduced irritation of the vaginal epithelial lining by reducing the formation of micelles. […] Iodide was chosen as the halogen to substitute nonoxynol-9 due to its relatively large σ and π values it produces when employed as a substituent. With an increase in the hydrophobic character, iodinated nonoxynol-9 should insert into sperm membranes more readily leading to an increase in spermicidal activity. In addition, the molecular weight and size of iodinated nonoxynol-9 is greater than that of nonoxynol-9 which leads to the possibility of the molecule being less bioavailable from vaginally placed dosage forms.

Where [4] appears, read: as determined by 125IN-9, mean ± spread.
Where [5] appears, read: as determined by [14C]N-9, mean ± spread.

For the compound `CCCCCCCCCc1ccc(OCCOCCOCCOCCOCCOCCOCCOCCOCCO)cc1` [N-9 (1-17), nonoxynol-9], the Solubility result in data set [1] is “OK clear soln”. For the same compound, the “inactivation of HIV-1 in vitro” value with HIV-1 was “inactivates HIV-1 completely”. Moreover, the “Highest Spermicidal Dilution, median” value in the data set with human spermatozoa came to 128.0. In addition, in the data set with human spermatozoa, the “M.E.C. (minimum effective concentration)” value is 188.0 µg/mL. Moreover, the “Infec. Red. (log), Cell-Free HIV Inactivation” value with free HIV-1-RF (Conc. 0.0032 %) is given as 0.3 log; in the data set with free HIV-1-RF (Conc. 0.01 %), 2.3 log; with free HIV-1-RF (Conc. 0.032 %) it was more than 4.5 log; in the data set with free HIV-1-RF (Conc. 0.1 %), more than 3.5 log. Moreover, in the data set with free HIV-1-RF, the “virucidal activity against cell-free HIV” value is “virucidal”. Besides, the “Infec. Red. (log), Cell-Associated HIV Inactivation” value with RF infected H9 cells (Conc. 0.0032 %) was determined as 0.8 log; in the data set with RF infected H9 cells (Conc. 0.01 %) it was 0.8 log; in the data set with RF infected H9 cells (Conc. 0.032 %) it was 2.5 log; in the data set on RF infected H9 cells (Conc. 0.1 %) it was 3.2 log. Further, the “virucidal activity against cell-associated HIV” value in the data set on RF infected H9 cells is “virucidal”. Besides, the vaginal irritation entry in data set [2] is “increase with increased dose”.

On to Mono-iodinated Nonoxynol-9 [IN-9 (n=4)], for which the log P (usually a log measure of how a compound divides between an organic and an aqueous phase) in data set [3] (setting [4]) is on record as 2.4 ± 0.2.

Consider Mono-iodinated Nonoxynol-9 [IN-9 (n=8)], for which the “log P” value in data set [3] (setting [4]) is recorded as 2.2 ± 0.1.

“Mono-iodinated Nonoxynol-9 [IN-9 (n=11)]”: the “log P” value in data set [3] (setting [4]) is listed as 2.2 ± 0.1.

For “Mono-iodinated Nonoxynol-9 [IN-9 (n=13)]”, in data set [3] (setting [4]), the “log P” value is reported as 1.8 ± 0.1.

For “Mono-iodinated nonoxynol-9 [IN-9 (1-17)]”, in data set [1], the Solubility entry is recorded as “OK hazy soln”. Moreover, the “MEC times less than that of neat N-9 (n=1-17)” value in the data set with human spermatozoa (neat liquids) was “over 30 times”. Besides, in the data set with human spermatozoa, the “Highest Spermicidal Dilution, median” value is on record as 4096.0. Further, the “M.E.C. (minimum effective concentration)” value with human spermatozoa came out at 6.0 µg/mL. In addition, the “Infec. Red. (log), Cell-Free HIV Inactivation” value in the data set on free HIV-1-RF (Conc. 0.0032 %) is recorded as 0.3 log; with free HIV-1-RF (Conc. 0.01 %) it was 2.3 log; in the data set on free HIV-1-RF (Conc. 0.032 %) it was 3.3 log; in the data set with free HIV-1-RF (Conc. 0.1 %) it was more than 4.5 log. In the data set on free HIV-1-RF (statement on Table 3, both assays), the “effectiveness in killing HIV compared with N-9 (n=1-17)” value is recorded as “at least as effective in killing HIV as N-9 (n=1-17)”. In addition, in the data set on free HIV-1-RF, the “virucidal activity against cell-free HIV” value is “virucidal”. Besides, in the data set on RF infected H9 cells, the “effectiveness against cell-associated HIV compared with N-9” value is recorded as “slightly more effective than N-9”. For the same compound, the “Infec. Red. (log), Cell-Associated HIV Inactivation” value is listed as 1.0 log in the data set with RF infected H9 cells (Conc. 0.0032 %), 1.8 log with RF infected H9 cells (Conc. 0.01 %), 2.3 log in the data set on RF infected H9 cells (Conc. 0.032 %) and more than 5.0 log in the data set with RF infected H9 cells (Conc. 0.1 %). Moreover, in the data set on RF infected H9 cells, the “virucidal activity against cell-associated HIV” value is given as “virucidal”.

Turning to “Nonoxynol-9 [N-9 (n=4), reference compound]”, the “log P” value in data set [3] (setting [5]) is on record as 1.6 ± 0.05.

Regarding “Nonoxynol-9 [N-9 (n=8), reference compound]”, in data set [3] (setting [5]), the log partition coefficient (log P) came out at 1.4 ± 0.01.

Consider “Nonoxynol-9 [N-9 (n=11), reference compound]”, for which the “log P” value in data set [3] (setting [5]) is 1.3 ± 0.07.
